Experimental data taken from US20250137032A1, “TWO-COMPONENT SYSTEMS FOR USE IN CELL-FREE GENE EXPRESSION” (priority 2023, published 2025).
Where a name gives a salt, the structure may show the parent alone.

Legend:
[1] = tested on: cell-free protein synthesis; test: Cell-free protein synthesis (myTXTL): NarX western blot band intensity and luminescence; type: biochemical, E. coli; settings: increasing ligand concentration, NarX band intensity / luminescence (FIG. 7, FIG. 14)
Experimental: Protein expression was performed using the myTxTl system (Arbor Biosceinces). 5 μL reactions were assembled with 10 mM lipid, 0.1 nM plasmid encoding T7 RNA polymerase, 9.9 nM plasmids encoding NarX, NarL, and reporter gene (nano luciferase or GFP) in specified ratios, and various concentration of ligands. Cell-free reactions were allowed to progress at 30° C. for 16 hours. Luciferase luminescence was read using the NanoGlo luciferase system and GFP fluorescence (ex. 480 nm, em. 507 nm) was read using a Molecular Devices Spectra Max i3 plate reader. To calculate fold change, luminescence values in the presence of nitrate were divided by the luminescence values in the absence of nitrate for each replicate.
1 μL of cell-free reaction was diluted to 15 μL in Laemlli buffer and heated at 95° C. for 10 minutes. Samples were then loaded and run on a 12% Mini-PROTEAN TGX Precast Protein Gel (Bio-Rad) at 150 V for 90 minutes. Wet transfer was performed onto a PVDF membrane (Bio-Rad) for 45 min at 100 V. Membranes were then blocked for an hour at room temperature in 5% milk in TBST (pH 7.6:50 mM Tris, 150 mM NaCl, HCl to pH 7.6, 0.1% Tween) and incubated for 1 hour at room temperature or overnight at 4° C. with primary solution (anti-Flag (Sigma F1804) or anti-Myc (ab32), diluted 1:1000 in 5% milk in TBST). Primary antibody solution was decanted, and the membrane was washed three times for 5 minutes in TBST and then incubated in secondary solution at room temperature for 1 hour (HRP-anti-Mouse (CST 7076) diluted 1:3000 in 5% milk in TBST). Membranes were then washed in TBST and incubated with Clarity Western ECL Substrate (Bio-Rad) for 5 min. Blots were imaged using an Azure Biosystems c280 imager and band intensities were quantified with ImageJ.

NarX-RssA = molecular target: T1, NarX-RssA (Serratia marcescens, UniProt Q8GP19); test: Cell-free iron-sensing NarX chimera, luciferase reporter; type: biochemical
T1 construct: All genes were; made in house; host or cells: cell-free expression in situ, myTXTL E. coli extract, with DMPC, POPC or DOPC vesicles

[2] = Dynamic light scattering of 100% POPC vesicles in the presence of ligands (liposome stability); type: physicochemical
[3] = literature value, cited from earlier work; for Kc (kBT) (6): bending rigidity; for CPP (4): critical packing parameter; for Tm (7): membrane transition temperature, in °C (unit assumed)
NarX-VanS Chimera = test: Cell-free vancomycin-sensing NarX chimera, luciferase reporter; type: biochemical, Enterococcus faecium
[4] = plasmid concentrations which enabled functional NarX sensing
[5] = reporter plasmid reduced by 90%, DMPC, POPC, DOPC vesicles
[6] = 100% POPC vesicles in the presence of 100 μM ligand
[7] = 100% POPC vesicles in the presence of 1 mM ligand

Row | SMILES | Kc (kBT) (6) [3] | CPP (4) [3] | 2 Dc (A) (2) [3] | Area (Å^2) (1) [3] | C2:C2 (Å) (6) [3] | DHH (Å) (2) [3] | F (kcal/mol/Å) (6) [3] | Ka (dyn/cm) (6) [3] | Kc^PBM (6) [3] | Kg (10^−20 J) (6) [3] | Kg/Kc (6) [3] | Kg^M (10^−20 J) (6) [3] | Kg^M/Kc^M (6) [3] | Ktw (10^−20 J) (6) [3] | Kθ (10^−20 J/nm^2) (6) [3] | Lipid Volume (A^3) (3) [3] | P-C (Å) Head group thickness (6) [3] [Å] | P:P (Å) (6) [3] | δ (Å) (6) [3] | Tm (7) [3] | other results
1 | O.O.O.O.O.O=S(=O)([O-])[O-].[Cu+2] [copper, copper (II) sulfate pentahydrate] |  |  |  |  |  |  |  |  |  |  |  |  |  |  |  |  |  |  |  |  | effect on cell-free protein expression [1]: inhibited cell-free protein expression; effect on cell-free protein expression ([1]; listed as Copper): inhibits cell-free protein synthesis
2 | [Cl][Fe]([Cl])[Cl] [Iron, iron (III) chloride anhydrous] |  |  |  |  |  |  |  |  |  |  |  |  |  |  |  |  |  |  |  |  | sensor response to ligand (gene expression) (NarX-RssA; [4]): no gene expression was observed; sensor response to ligand (luciferase expression) (NarX-RssA; [5]): functional sensors; Diameter (nm) [2, 6]: 118.62 nm; P.D.I. [2, 6]: 0.135
3 | CCCCCCCC/C=C\CCCCCCCC(=O)O[C@H](COC(=O)CCCCCCCCCCCCCCC)COP(=O)([O-])OCC(O)CO.[Na+] (mixture of isomers) [POPG, 1-palmitoyl-2-oleoyl-sn-glycero-3-phospho-(1′-rac-glycerol) (sodium salt)] | 26.9 | 0.7 | 27.9 | 66 | 26.88 | 38.5 | 0.0036 | 180 | 5.67 | −2.76 10^−20 J | −0.24 | −1.43 10^−20 J | −0.25 | 1.05 10^−20 J | 6.15 10^−20 J/nm^2 | 1226.6 | 10.61 | 37.49 | 9.57 | −2 | 
4 | CCCCCCCC/C=C\CCCCCCCC(=O)O[C@H](COC(=O)CCCCCCCCCCCCCCC)COP(=O)(O)OCCN [POPE, 1-palmitoyl-2-oleoyl-sn-glycero-3-phosphoethanolamine] | 31.2 | 1.08 | 32.6 | 56.6 | 30.67 | 43.4 | 0.2041 | 260 | 10.78 | 5.85 10^−20 J | 0.44 | 0.06 10^−20 J | 0.01 | 2.36 10^−20 J | 8.04 10^−20 J/nm^2 | 1176.8 | 10.88 | 41.55 | 10.12 | 25 | # of lipid contacts (5) [3]: 1.5; Lateral Pressure (pN/nm^2) (3) [3]: 456 pN/nm^2; Ro (Å) (6) [3]: −2220 Å; γ chain (6) [3]: 0.188
5 | CN[C@H](CC(C)C)C(=O)N[C@H]1C(=O)N[C@@H](CC(N)=O)C(=O)N[C@H]2C(=O)N[C@H]3C(=O)N[C@H](C(=O)N[C@H](C(=O)O)c4cc(O)cc(O)c4-c4cc3ccc4O)[C@H](O)c3ccc(c(Cl)c3)Oc3cc2cc(c3O[C@@H]2O[C@H](CO)[C@@H](O)[C@H](O)[C@H]2O[C@H]2C[C@](C)(N)[C@H](O)[C@H](C)O2)Oc2ccc(cc2Cl)[C@H]1O [Vancomycin, vancomycin hydrochloride] |  |  |  |  |  |  |  |  |  |  |  |  |  |  |  |  |  |  |  |  | Diameter (nm) [2, 7]: 124.88 nm; P.D.I. [2, 7]: 0.189; sensor response to ligand (gene expression) (NarX-VanS Chimera; [4]): no gene expression was observed; sensor response to ligand (luciferase expression) (NarX-VanS Chimera; [5]): did not induce an increase in luciferase expression
6 | CCCCCCCC/C=C\CCCCCCCC(=O)OC(COC(=O)CCCCCCCCCCCCCCC)COP(=O)([O-])OCC[N+](C)(C)C (stereo not drawn) [POPC, 1-palmitoyl-2-oleoyl-glycero-3-phosphocholine] | 31.7 | 0.61 | 28.8 | 64.3 | 27.52 | 37 | 0.0303 | 280 | 9.5 | −1.38 10^−20 J | −0.1 | −1.09 10^−20 J | −0.17 | 1.45 10^−20 J | 5.52 10^−20 J/nm^2 | 1231.2 | 11.02 | 38.54 | 9.64 | −9 | # of lipid contacts (5) [3]: 2.75; Lateral Pressure (pN/nm^2) (3) [3]: 517 pN/nm^2; Ro (Å) (6) [3]: −315 Å; γ chain (6) [3]: 0.198
7 | CCCCCCCCCCCCCC(=O)OC[C@H](COP(=O)([O-])OCC[N+](C)(C)C)OC(=O)CCCCCCCCCCCCC [DMPC, 1,2-dimyristoyl-sn-glycero-3-phosphocholine] | 29.3 | 1 | 25.4 | 60.6 | 24.54 | 35.3 | −0.0225 | 210 | 5.75 | −3.23 10^−20 J | −0.26 | −1.32 10^−20 J | −0.22 | 2.18 10^−20 J | 4.02 10^−20 J/nm^2 | 1100 | 11.11 | 35.65 | 9.48 | 24 | Lateral Pressure (pN/nm^2) (3) [3]: 442 pN/nm^2; Ro (Å) (6) [3]: −47 Å; γ chain (6) [3]: 0.247
8 | CCCCCCCC/C=C\CCCCCCCC(=O)OC[C@H](COP(=O)([O-])OCC[N+](C)(C)C)OC(=O)CCCCCCC/C=C\CCCCCCCC [DOPC, 1,2-dioleoyl-sn-glycero-3-phosphocholine] | 28.8 | 1.09 | 28.8 | 67.4 | 27.37 | 36.7 | 0.061 | 290 | 9.71 | −0.08 10^−20 J | −0.01 | −0.84 10^−20 J | −0.14 | 0.99 10^−20 J | 6.4 10^−20 J/nm^2 | 1304.5 | 10.98 | 38.35 | 9.41 | −17 | Lateral Pressure (pN/nm^2) (3) [3]: 480 pN/nm^2; γ chain (6) [3]: 0.18(5) ·
